Measurements as given in patent US9040498B2, “1,2,3-Triazolyl purine derivatives” (RESEARCH FOUNDATION OF THE CITY UNIVERSITY OF NEW YORK, priority 2012, dated 2015).
Read-outs that look alike come from different tables or passages of the source.

What was measured:
[1] = test system: paclitaxel-resistant (PTX10) ovarian cancer cell line; test: GI50 against paclitaxel-resistant ovarian cancer cell line PTX10
[2] = test system: p53KO HCT116 cancer cell line; test: GI50 against p53KO HCT116 cancer cell line; conditions: read-out: GI50 p53KO
[3] = test system: ovarian (1A9) cancer cell line; test: GI50 against ovarian cancer cell line 1A9; conditions: read-out: GI50 1A9
[4] = test system: paclitaxel-resistant (PTX22) ovarian cancer cell line; test: GI50 against paclitaxel-resistant ovarian cancer cell line PTX22; conditions: read-out: GI50 PTX22
HEL cell [5] = test: HEL cell effects: cell growth; conditions: read-out: HEL cell effects cell growth (IC50); concentration required to reduce cell growth by 50%
HEL cell [6] = test: HEL cell effects: cell morphology (minimum cytotoxic concentration); conditions: minimum cytotoxic concentration causing microscopically detectable alteration of cell morphology
[7] = test system: colorectal (HCT116) cancer cell line; test: GI50 against colorectal cancer cell line HCT116
CMV Davis strain = test: Anti-CMV activity in HEL cell cultures, Davis strain; assay type: cell-based, cytomegalovirus; conditions: reduce virus plaque formation by 50%
cytomegalovirus (CMV) = test: Anti-CMV activity in HEL cells (both strains); assay type: cell-based; conditions: for anti-CMV activity (in words): HEL cells
CMV AD-169 strain = test: Anti-CMV activity in HEL cell cultures, AD-169 strain; assay type: cell-based, cytomegalovirus; conditions: reduce virus plaque formation by 50%
[8] = test system: vesicular stomatitis virus (VSV); assay type: cell-based; conditions: human embryonic lung (HEL) fibroblast cell cultures
[9] = test system: vesicular stomatitis virus (VSV); assay type: cell-based; conditions: human cervix carcinoma HeLa cell cultures; read-out: anti-vesicular stomatitis virus (VSV) activity
[10] = test system: HeLa and HEL cell cultures
[11] = test system: murine leukemia L1210, human lymphocyte CEM, and HeLa cells; test: Cytostatic activity against L1210, CEM and HeLa cells; assay type: cell-based; conditions: for cytostatic activity (in words): L1210, CEM, HeLa; for IC50: range over L1210 (48 h), CEM (72 h), HeLa (96 h)
Description: The cytostatic effects of the test compounds on murine leukemia cells (L1210), human T-lymphocyte cells (CEM) and human cervix carcinoma cells (HeLa) were evaluated as follows: an appropriate number of cells suspended in growth medium were allowed to proliferate in 200-μL-wells of 96-well-microtiter plates in the presence of variable amounts of test compounds at 37° C. in a humidified CO2-controlled atmosphere. After 48 h (L1210), 72 h (CEM) or 96 h (HeLa), the number of cells was counted in a Coulter counter. The IC50 value is defined as the concentration required to inhibit cell proliferation by 50%.

[12] = read-out: GI50 PTX10, paclitaxel-resistant ovarian PTX10, four days
[13] = paclitaxel-resistant ovarian PTX22, four days
[14] = read-out: GI50 HCT116, colorectal HCT116, four days
[15] = HEL cell cultures, virus input 100 PFU

| Compound | GI50 [1, 12] [µM] | GI50 ([2]; p53KO HCT116, four days) [µM] | GI50 ([3]; ovarian 1A9, four days) [µM] | GI50 [4, 13] [µM] | IC50 (HEL cell [5]) [µM] | HEL cell effects cell morphology (MDC) (HEL cell [6]) [μM] | GI50 [7, 14] [µM] | EC50 (CMV Davis strain; [15]) [µM] | EC50 (CMV AD-169 strain; [15]) [µM] | EC50 (CMV Davis strain; […]) [µM] | also measured |
| --- | --- | --- | --- | --- | --- | --- | --- | --- | --- | --- | --- |
| 2-[4-(Ferrocenyl)-1,2,3-triazol-1H-yl]-2′-deoxyinosine [Compound 29] | > 50 | > 50 | 41.6 | 18 | > 200 | >200 | > 50 | – | – | – | – |
| 2-[4-(Ferrocenyl)-1,2,3-triazol-1H-yl]inosine [Compound 22] | > 50 | > 50 | 29.7 | 12.9 | 123 | 2190 | > 50 | 123 | 120 | – | anti-CMV activity (in words) (cytomegalovirus (CMV)): marginal activity |
| OC[C@H]1O[C@@H](n2cnc3c(O)nc(-n4cc(-c5ccccc5)nn4)nc32)[C@H](O)[C@@H]1O [Compound 17, 2-[4-(Phenyl)-1,2,3-triazol-1H-yl]inosine] | > 50 | > 50 | 22.8 | 4.76 | – | 240 | > 50 | > 50 | > 50 | – | anti-VSV activity (in words) [8]: could not be confirmed; EC50 [9]: 27 ± 2.4 µM; toxicity observed [10]: 100 to 240 µM; cytostatic activity (in words) [11]: most cytostatic; IC50 [11]: 34 to 124 µM |
| Cc1ccc(-c2cn(-c3nc(O)c4ncn([C@@H]5O[C@H](CO)[C@@H](O)[C@H]5O)c4n3)nn2)cc1 [Compound 18, 2-[4-(4-Methylphenyl)-1,2,3-triazol-1H-yl]inosine] | > 50 | > 50 | 38 | 13.4 | – | >240 | > 50 | 151 | 118 | – | anti-CMV activity (in words) (cytomegalovirus (CMV)): marginal activity |
| COc1ccc(-c2cn(-c3nc(O)c4ncn([C@@H]5O[C@H](CO)[C@@H](O)[C@H]5O)c4n3)nn2)cc1 [Compound 19, 2-[4-(4-Methoxyphenyl)-1,2,3-triazol-1H-yl]inosine] | > 50 | > 50 | 29.5 | 8.56 | > 230 | >230 | > 50 | – | – | – | – |
| OCc1cn(-c2nc(O)c3ncn([C@@H]4O[C@H](CO)[C@@H](O)[C@H]4O)c3n2)nn1 [Compound 20, 2-[4-(Hydroxymethyl)-1,2,3-triazol-1H-yl]inosine] | > 50 | 42.6 | 20.4 | 3.53 | – | >270 | > 50 | > 270 | > 270 | – | – |
| O=C1c2ccccc2C(=O)N1Cc1cn(-c2nc(O)c3ncn([C@@H]4O[C@H](CO)[C@@H](O)[C@H]4O)c3n2)nn1 [Compound 21, 2-[4-(N-Phthalimidomethyl)-1,2,3-triazol-1H-yl]inosine] | > 50 | > 50 | 6.32 | 14.1 | > 200 | >200 | > 50 | > 200 | – | – | – |
| CCCCc1cn(-c2nc(O)c3ncn([C@@H]4O[C@H](CO)[C@@H](O)[C@H]4O)c3n2)nn1 [Compound 23, 2-(4-n-Butyl-1,2,3-triazol-1H-yl)inosine] | > 50 | > 50 | 37 | 28.1 | > 250 | – | > 50 | 39 | 73 | – | anti-CMV activity (in words) (cytomegalovirus (CMV)): somewhat more pronounced; EC50 (cytomegalovirus (CMV); range over the CMV strains, read-out: EC50 against CMV in HEL cells): 39 to 73 µM |
| OC[C@H]1O[C@@H](n2cnc3c(O)nc(-n4cc(-c5ccc(F)cc5)nn4)nc32)[C@H](O)[C@@H]1O [Compound 24, 2-[4-(4-Fluorophenyl)-1,2,3-triazol-1H-yl]inosine] | > 50 | > 50 | 34 | 31 | – | >230 | > 50 | > 230 | > 230 | – | – |
| OC[C@H]1O[C@@H](n2cnc3c(O)nc(-n4cc(-c5ccccc5)nn4)nc32)C[C@@H]1O [Compound 25, 2-[4-(Phenyl)-1,2,3-triazol-1H-yl]-2′-deoxyinosine] | > 50 | > 50 | 31 | 14.8 | 188 | >250 | > 50 | – | – | 158 | anti-CMV activity (in words) (cytomegalovirus (CMV)): marginal activity |
| COc1ccc(-c2cn(-c3nc(O)c4ncn([C@H]5C[C@H](O)[C@@H](CO)O5)c4n3)nn2)cc1 [Compound 26, 2-[4-(4-Methoxyphenyl)-1,2,3-triazol-1H-yl]-2′-deoxyinosine] | > 50 | > 50 | 37.2 | 15.7 | – | >240 | > 50 | – | – | > 240 | EC50 (CMV AD-169 strain; […]): > 240 µM |
| OCc1cn(-c2nc(O)c3ncn([C@H]4C[C@H](O)[C@@H](CO)O4)c3n2)nn1 [Compound 27, 2-[4-(Hydroxymethyl)-1,2,3-triazol-1H-yl]-2′-deoxyinosine] | > 50 | > 50 | 49.4 | 32.9 | – | >290 | > 50 | – | – | > 290 | EC50 (CMV AD-169 strain; […]): > 290 µM |
| O=C1c2ccccc2C(=O)N1Cc1cn(-c2nc(O)c3ncn([C@H]4C[C@H](O)[C@@H](CO)O4)c3n2)nn1 [Compound 28, 2-[4-(N-Phthalimidomethyl)-1,2,3-triazol-1H-yl]-2′-deoxyinosine] | > 50 | > 50 | 49.6 | 32.2 | – | >210 | > 50 | – | – | > 210 | EC50 (CMV AD-169 strain; […]): > 210 µM |
| CCCCc1cn(-c2nc(O)c3ncn([C@H]4C[C@H](O)[C@@H](CO)O4)c3n2)nn1 [Compound 30, 2-(4-n-Butyl-1,2,3-triazol-1H-yl)-2′-deoxyinosine] | > 50 | > 50 | 46.1 | 26.9 | – | >270 | > 50 | – | – | > 270 | EC50 (CMV AD-169 strain; […]): > 270 µM |
| OC[C@H]1O[C@@H](n2cnc3c(NCc4ccccc4)nc(-n4cc(-c5ccccc5)nn4)nc32)[C@@H](O)C1O (stereo partly drawn) [Compound 35, 6-(N-Benzyl)-2-[4-(phenyl)-1,2,3-triazol-1H-yl]adenosine] | – | – | – | – | – | 200 | – | – | – | – | GI50 ([1]; PTX10, 96 h, read-out: GI50 PTX10): > 50 µM; GI50 ([2]; Homo sapiens, HCT-116, 96 h): > 50 µM; EC50 (CMV Davis strain; Human betaherpesvirus 5, HEL cell cultures, virus input 100 PFU): > 40 µM; GI50 ([3]; 96 h): 5 µM; GI50 ([4]; 96 h): 24.5 µM; EC50 (CMV AD-169 strain; Human betaherpesvirus 5, AD169, HEL cell cultures, virus input 100 PFU): > 40 µM; GI50 ([7]; Homo sapiens, HCT-116, 96 h, read-out: GI50 HCT116): 43.6 µM; cytostatic activity (in words) [11]: poorly cytostatic; IC50 [11]: 90 to 120 µM |
| CC(=O)O[C@H]1C(=O)[C@@]2(C)[C@H]([C@H](OC(=O)c3ccccc3)[C@]3(O)C[C@H](OC(=O)[C@H](O)[C@@H](NC(=O)c4ccccc4)c4ccccc4)C(C)=C1C3(C)C)[C@]1(OC(C)=O)CO[C@@H]1C[C@@H]2O [paclitaxel, reference compound] | – | – | – | – | – | – | – | – | – | – | GI50 ([1]; PTX10, read-out: GI50 PTX10): 0.079 µM; GI50 [3]: 0.00151 µM; GI50 [4]: 0.068 µM; GI50 ([7]; Homo sapiens, HCT-116, read-out: GI50 HCT116): 0.00685 µM |
